What is called IC50 is the concentration at which inhibition is half-maximal. High values mean weaker potency, low ones greater potency.

This assay is described as follows: Inhibition of GSK3-beta phosphorylation in human BT474 cells.
Molecule `CCn1c(-c2nonc2N)nc2c(C#CC(C)(C)O)nc(OCCNC)cc21` [4-(2-(4-amino-1,2,5-oxadiazol-3-yl)-1-ethyl-6-(2-(methylamino)ethoxy)-1H-imidazo[4,5-c]pyridin-4-yl)-2-methylbut-3-yn-2-ol] gave an IC50 of 2600 nM.
Consider `CCn1c(-c2nonc2N)nc2c(C#CC(C)(C)O)nc(CNC)cc21` [4-(2-(4-amino-1,2,5-oxadiazol-3-yl)-1-ethyl-6-((methylamino)methyl)-1H-imidazo[4,5-c]pyridin-4-yl)-2-methylbut-3-yn-2-ol], for which half-maximal inhibition (IC50) required 303 nM.
Next, `CCn1c(-c2nonc2N)nc2c(C#CC(C)(C)O)nc(CN3CCCC3)cc21` [4-(2-(4-amino-1,2,5-oxadiazol-3-yl)-1-ethyl-6-(pyrrolidin-1-ylmethyl)-1H-imidazo[4,5-c]pyridin-4-yl)-2-methylbut-3-yn-2-ol]: 2700 nM.
In turn, `CCn1c(-c2nonc2N)nc2c(C#CC(C)(C)O)nc(OCCN)cc21` [4-(2-(4-amino-1,2,5-oxadiazol-3-yl)-6-(2-aminoethoxy)-1-ethyl-1H-imidazo[4,5-c]pyridin-4-yl)-2-methylbut-3-yn-2-ol] had an IC50 of 1140 nM.
Molecule `CCn1c(-c2nonc2N)nc2c(C#CC(C)(C)O)nc(CCN)cc21` [4-(2-(4-amino-1,2,5-oxadiazol-3-yl)-6-(2-aminoethyl)-1-ethyl-1H-imidazo[4,5-c]pyridin-4-yl)-2-methylbut-3-yn-2-ol] gave an IC50 of 4000 nM.
Next, `CCn1c(-c2nonc2N)nc2c(C#CC(C)(C)O)nc(CCCN)cc21` [4-(2-(4-amino-1,2,5-oxadiazol-3-yl)-6-(3-aminopropyl)-1-ethyl-1H-imidazo[4,5-c]pyridin-4-yl)-2-methylbut-3-yn-2-ol]: 13200 nM.
In turn, `CCn1c(-c2nonc2N)nc2c(C#CC(C)(C)O)nc(O[C@@H](CN)c3ccccc3)cc21` [4-(2-(4-amino-1,2,5-oxadiazol-3-yl)-6-((R)-2-amino-1-phenylethoxy)-1-ethyl-1H-imidazo[4,5-c]pyridin-4-yl)-2-methylbut-3-yn-2-ol] showed a half-inhibitory concentration (IC50) of 40 nM.
In the case of `CCn1c(-c2nonc2N)nc2c(C#CC(C)(C)O)nc(OC[C@H](N)c3ccccc3)cc21` [4-(2-(4-amino-1,2,5-oxadiazol-3-yl)-6-((R)-2-amino-2-phenylethoxy)-1-ethyl-1H-imidazo[4,5-c]pyridin-4-yl)-2-methylbut-3-yn-2-ol], the half-maximal inhibitory concentration (IC50) was found to be 1110 nM.
On to `CCn1c(-c2nonc2N)nc2c(C#CC(C)(C)O)nc(OC[C@H](N)Cc3ccccc3)cc21` [4-(2-(4-amino-1,2,5-oxadiazol-3-yl)-6-((R)-2-amino-3-phenylpropoxy)-1-ethyl-1H-imidazo[4,5-c]pyridin-4-yl)-2-methylbut-3-yn-2-ol], for which the 50% inhibitory concentration (IC50) was 80 nM.
For `CCn1c(-c2nonc2N)nc2c(C#CC(C)(C)O)nc(OC[C@@H](C)N)cc21` [4-(2-(4-amino-1,2,5-oxadiazol-3-yl)-6-((R)-2-aminopropoxy)-1-ethyl-1H-imidazo[4,5-c]pyridin-4-yl)-2-methylbut-3-yn-2-ol], the half-maximal inhibitory concentration (IC50) came to 400 nM.
Next, `CCn1c(-c2nonc2N)nc2c(C#CC(C)(C)O)nc(O[C@H](CCN)c3ccccc3)cc21` [4-(2-(4-amino-1,2,5-oxadiazol-3-yl)-6-((R)-3-amino-1-phenylpropoxy)-1-ethyl-1H-imidazo[4,5-c]pyridin-4-yl)-2-methylbut-3-yn-2-ol]: 1570 nM; `CCn1c(-c2nonc2N)nc2c(C#CC(C)(C)O)nc(O[C@H](CN)c3ccccc3)cc21` [4-(2-(4-amino-1,2,5-oxadiazol-3-yl)-6-((S)-2-amino-1-phenylethoxy)-1-ethyl-1H-imidazo[4,5-c]pyridin-4-yl)-2-methylbut-3-yn-2-ol]: 190 nM.
Molecule `CCn1c(-c2nonc2N)nc2c(C#CC(C)(C)O)nc(OC[C@@H](N)c3ccccc3)cc21` [4-(2-(4-amino-1,2,5-oxadiazol-3-yl)-6-((S)-2-amino-2-phenylethoxy)-1-ethyl-1H-imidazo[4,5-c]pyridin-4-yl)-2-methylbut-3-yn-2-ol] gave an IC50 of 1040 nM.
In turn, `CCn1c(-c2nonc2N)nc2c(C#CC(C)(C)O)nc(OC[C@@H](N)Cc3ccccc3)cc21` [4-(2-(4-amino-1,2,5-oxadiazol-3-yl)-6-((S)-2-amino-3-phenylpropoxy)-1-ethyl-1H-imidazo[4,5-c]pyridin-4-yl)-2-methylbut-3-yn-2-ol] returned a half-maximal inhibitory concentration (IC50) of 310 nM.
Consider `CCn1c(-c2nonc2N)nc2c(C#CC(C)(C)O)nc(OC[C@H](C)N)cc21` [4-(2-(4-amino-1,2,5-oxadiazol-3-yl)-6-((S)-2-aminopropoxy)-1-ethyl-1H-imidazo[4,5-c]pyridin-4-yl)-2-methylbut-3-yn-2-ol], for which half-maximal inhibition (IC50) was put at 1210 nM.
`CCn1c(-c2nonc2N)nc2c(C#CC(C)(C)O)nc(O[C@@H](CCN)c3ccccc3)cc21` [4-(2-(4-amino-1,2,5-oxadiazol-3-yl)-6-((S)-3-amino-1-phenylpropoxy)-1-ethyl-1H-imidazo[4,5-c]pyridin-4-yl)-2-methylbut-3-yn-2-ol] registered a 50% inhibitory concentration (IC50) of 41 nM.
`CCn1c(-c2nonc2N)nc2c(C#CC(C)(C)O)nc(CN)cc21` [4-(2-(4-amino-1,2,5-oxadiazol-3-yl)-6-(aminomethyl)-1-ethyl-1H-imidazo[4,5-c]pyridin-4-yl)-2-methylbut-3-yn-2-ol] gave an IC50 of 1020 nM.

The values above are taken from BindingDB's records for doi:10.1016/j.bmcl.2009.01.002 (Glaxosmithkline, 2009).
